Test results reported in patent US8058425B2, “Purine derivatives as kinase inhibitors” (Eli Lilly and Company, priority 2002, dated 2011).

Legend:
female Fischer 344 rats = experiment: Bone Deposition; type: in vivo, rat; set-up: key: +: hypertrophy and proliferation of osteoblasts with production of osteoid observed; −: hypertrophy and proliferation of osteoblasts with production of osteoid not observed at this dose; settings: oral gavage daily for 4 days
Procedure: Vehicle or test compound in vehicle (1% Carboxymethylcellulose sodium, 0.25% Polysorbate 80, and 0.05% Dow Corning Antifoam 1510-US in purified water) is administered orally by gavage to female Fischer 344 rats daily for 4 days with three rats in each dosage group. The rats are delivered for necropsy and sections of formalin-fixed, paraffin-embedded bone are examined microscopically to evaluate osteoblast proliferation and deposition of osteoid.
The compounds in the following tables were tested essentially as described above and hypertrophy and proliferation of osteoblasts along surfaces of medullary trabecula and the cortical periosteum accompanied by production of osteoid was observed.
The compound of Example 365 was tested again essentially as described above at 0, 3, 10, and 30 mg/kg with four rats at each dosage level for 21 days. The vertebra and the femur were submitted for analysis of bone mineral density (BMD), bone mineral content (BMC), and cross sectional area following 21 days of daily dosing with the compound of Example 365.

3T3-L1 adipocytes = experiment: Glycogen Synthesis Assay; type: cell-based; settings: 0.1 μM
Procedure: The glycogen synthesis assay measures the increase in the production of glycogen both in the absence and in the presence of insulin in the cells. This test is done according to standard protocols. (Berger, J. and Hayes, N. S., Anal. Biochem., 261, 159-163 (1998)). Briefly, 3T3-L1 adipocytes are plated and differentiated in a 96-well plate at 25,000 cells/well. The plate is serum-starved overnight. The serum-starvation media is removed just prior to assay, and the plate is washed with 100 μl/well Krebs-Ringer-Hepes buffer (KRBH). The KRBH is removed and 50 μl of compound (twice the amount of the final concentration) is added to the assay plate. Next, 50 μl of ^14C-labeled glucose is added to the assay plate at 0.1 μCi/well. The plate is then incubated at 37° C. for 2 hours.
The plate is washed with 100 μL/well of PBS, and the cells are lysed with 75 μl/well of 1N NaOH. The plate is heated at 70° C. for 20 minutes. An aliquot (50 μl) of the supernatant is transferred from the assay plate to a Millipore FC filter plate containing 120 μl/well of ice-cold ethanol. The plate is allowed to stand for 2 hours at 4° C. to facilitate precipitation. The ethanol is removed from the filter plate via a vacuum manifold, and the plate is washed with 100 uL/well of ice-cold 70% ethanol. […] The plate was then counted on a Packard Topcount. […]

ZDF rats = experiment: Glucose Lowering Assay; type: in vivo, rat; settings: oral gavage, dose of 10 mg/kg
Procedure: The glucose lowering assay is an in vivo test that measures the effect of the test compound on blood glucose and triglycerides relative to insulin. (ELDAR-FINKLEMAN, H., et al., Expression and Characterization of Glycogen Synthase Kinase-3 Mutants and Their Effect on Glycogen Synthase Activity in Intact Cells, Proc. Nat. Acad. Sci, 93, 10228-10233 (1996)). Briefly, ZDF rats (Charles River, Inc.) at six weeks of age are housed individually with free access to food and water. Rats are dosed with drug once daily by oral gavage, with the compound prepared as a suspension in 1% caboxymethylcellusolve/0.25% Tween 80 (CMC-Tween). Vehicle controls are dosed with CMC-Tween only. The duration of study varied according to the protocol used, with acute dosing studies lasting one day and dose escalation studies lasting seven days. Body weights and food consumption measurements are also performed once a week for seven-day studies. For measurement of blood glucose and triglycerides, blood samples of 600 μl are collected by the tail snip method. […]

[1] = target: T1, GSK-3β kinase activity in brain cortex tissue (Mus musculus, UniProt Q9WV60); experiment: Ex Vivo Brain Assay; type: in vivo; settings: oral dosing of mice, dose of 20 mg/kg
T1 construct: brain cortex tissue is dissected and homogenized in freshly prepared lysis buffer; from tissue; host or cells: mouse (PDAPP or CD-1) brain cortex, cytosolic homogenate
Procedure: The ex vivo brain assay assesses the GSK-3β kinase activity of the test compound in brain cortex tissue according to standard protocols (Wang, et al., Anal. Biochem., 220, 397-402 (1994)).
The ex vivo GSK-3β kinase activity of a compound is assayed following oral dosing of 2 to 3 month old PDAPP or CD-1 mice. After a 20 mg/kg, 24-hour dose, followed by an additional three-hour dose, brain cortex tissue is dissected and homogenized in freshly prepared lysis buffer (10 mM K2HPO4 pH 7.2, 1 mM EDTA, 5 mM EGTA, 10 mM MgCl2, 50 mM β-Glycerophosphate, 1 mM Na3VO4, 2 mM DTT, 1 μM Microcystin, COMPLETE protease inhibitor tablet, no detergent). Following a thirty-minute incubation on ice, cortex homogenate samples are centrifuged (100,000 G) for 30 minutes at 4° C. (Ahmed, N. N., et al., Oncogene, 8, 1957 […]). The total protein concentration of homogenate is determined using the BCA method (Pierce). GSK-3β activity in cytosolic homogenate from vehicle- and compound-treated mice is then assayed. The kinase reaction occurs in a 50 μl total volume containing 20 mM MOPS pH 7.4, 25 mM β-glycerol phosphate, 5 mM EGTA, 1 mM NA3VO4, 1 mM DTT, 15 mM MgCl2, 100 μM cold ATP, 200 μM CREB peptide, 10 μL cytosolic cortex brain homogenate, and 5 μCi γ-^33P-ATP. […] The following day, the filter plate is read for ^33P on Top Count (Packard). […]

[2] = tested on: AG04160C FAD lymphoblast cells; experiment: Beta-Catenin Protection Assay; type: cell-based, human; settings: 0.1 μM, 24 hours
Procedure: The beta-catenin assay is the fold induction over basal beta-catenin and is performed according to standard protocols (Hedgepeth, C. M., Dev. Biol., 185, 82-91 (1997); Chen, G., et al., J. Neurochem., 72, 1327-1330 (1999); Hong, M., et al., J. Biol. Chem., 272, 25326-25332 (1997)).
The human familial Alzheimer's disease (FAD) presenilin-1 AG04160C lymphoblast cell line (Coriell Cell Repository, Camden, N.J.) is maintained as a suspension culture in RPMI 1640 (with L-Glutamine) supplemented with 10% fetal bovine serum and 1% penicillin-streptomycin in an atmosphere of 37° C. and 5% CO2. The AG04160C FAD lymphoblast cells are seeded in T-25 cm^2 flasks at 2.5 to 5.0×10^5 cells/ml in a total volume of 10 ml. […] The total protein concentration in whole cell lysate samples is determined using the BCA method (Pierce). Next, 15 μg of sample is loaded on a 10% Bis-Tris NuPage gel and transferred to a pure nitrocellulose membrane followed by β-catenin immunoblot analysis using a (3-catenin specific antibody (Transduction Labs). The β-catenin accumulation/stability is then quantified following densitometry analysis of protein bands (Kodak Digital Science). Final results are reported as fold induction over basal β-catenin. The compound of Example 121 was tested in this assay and induced a 9.8-fold induction of β-catenin at 0.1 μM.

T1 sequence (Q9WV60 whole entry): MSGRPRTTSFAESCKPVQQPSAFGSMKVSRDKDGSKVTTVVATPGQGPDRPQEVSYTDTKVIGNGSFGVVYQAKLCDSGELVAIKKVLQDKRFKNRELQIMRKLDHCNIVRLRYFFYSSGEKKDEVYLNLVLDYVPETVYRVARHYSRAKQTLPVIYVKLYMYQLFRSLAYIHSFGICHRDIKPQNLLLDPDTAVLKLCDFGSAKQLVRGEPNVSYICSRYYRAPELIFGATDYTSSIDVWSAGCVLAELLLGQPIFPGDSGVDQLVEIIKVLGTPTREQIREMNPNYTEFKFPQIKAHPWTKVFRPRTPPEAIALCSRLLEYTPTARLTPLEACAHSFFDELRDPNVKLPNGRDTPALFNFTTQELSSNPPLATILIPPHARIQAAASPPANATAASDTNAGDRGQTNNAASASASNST

Row | SMILES | hypertrophy and proliferation of osteoblasts with production of osteoid (female Fischer 344 rats; 50 mg/kg) | hypertrophy and proliferation of osteoblasts with production of osteoid (female Fischer 344 rats; 150 mg/kg) | increase of glycogen synthesis (3T3-L1 adipocytes; in the absence of insulin) | increase of glycogen synthesis (3T3-L1 adipocytes; in the presence of insulin) | glucose lowering (ZDF rats) | inhibition of kinase activity (ex vivo GSK-3β, brain cortex) [1] | fold induction over basal β-catenin [2]
1 | O=C1NC(=O)C(c2cnc3ccccn23)=C1c1cn2c3c(cccc13)CN(c1ncccn1)CC2 [Example 560, 3-(6-(pyrimidin-2-yl)-6,7-dihydro-6H-[1,4]diazepino[6,7,1-hi]indol-1-yl)-4-(imidazo[1,2-a]pyridin-3-yl)pyrrole-2,5-dione] | + | + |  |  |  |  | 
2 | Cl.O=C1NC(=O)C(c2cc(F)cc3ccoc23)=C1c1cn2c3c(cccc13)CNCC2 [Example 121, 3-(6,7-dihydro-6H-[1,4]diazepino[6,7,1-hi]indol-1-yl)-4-(5-fluorobenzofur-7-yl)-2,5-dioxopyrrole hydrochloride] |  |  | 3.7 fold | 6.4 fold | 56% | 30% | 9.8 fold
